Drawing on patent US6518270B1, “Heterocyclic compounds for inhibition of gastric acid secretion, processes for their preparation and pharmaceutical compositions thereof” (AstraZeneca AB, priority 1997, dated 2003), this text covers IC50 for 2 molecules.

pIC50: −log10 of the molar value.

The assay concerns the target T1, H+,K+-ATPase.
T1 construct: from tissue
Nature of the assay: Determination of H+,K+-ATPase activity. Type of assay: biochemical. The following applies: membrane vesicles, 15 min at +37° C., pH 7.4, 10 mM KCl, 2 mM ATP; release of inorganic phosphate. Here is the method: Determination of H^+,K^+-ATPase Activity
Membrane vesicles (2.5 to 5 μg) were incubated for 15 min at +37° C. in 18 mM Pipes/Tris buffer pH 7.4 containing 2 mM MgCl2, 10 mM KCl and 2 mM ATP. The ATPase activity was estimated as release of inorganic phosphate from ATP, as described by LeBel et al. (1978) Anal. Biochem. 85, 86-89.

T1 sequence (P20648 whole entry): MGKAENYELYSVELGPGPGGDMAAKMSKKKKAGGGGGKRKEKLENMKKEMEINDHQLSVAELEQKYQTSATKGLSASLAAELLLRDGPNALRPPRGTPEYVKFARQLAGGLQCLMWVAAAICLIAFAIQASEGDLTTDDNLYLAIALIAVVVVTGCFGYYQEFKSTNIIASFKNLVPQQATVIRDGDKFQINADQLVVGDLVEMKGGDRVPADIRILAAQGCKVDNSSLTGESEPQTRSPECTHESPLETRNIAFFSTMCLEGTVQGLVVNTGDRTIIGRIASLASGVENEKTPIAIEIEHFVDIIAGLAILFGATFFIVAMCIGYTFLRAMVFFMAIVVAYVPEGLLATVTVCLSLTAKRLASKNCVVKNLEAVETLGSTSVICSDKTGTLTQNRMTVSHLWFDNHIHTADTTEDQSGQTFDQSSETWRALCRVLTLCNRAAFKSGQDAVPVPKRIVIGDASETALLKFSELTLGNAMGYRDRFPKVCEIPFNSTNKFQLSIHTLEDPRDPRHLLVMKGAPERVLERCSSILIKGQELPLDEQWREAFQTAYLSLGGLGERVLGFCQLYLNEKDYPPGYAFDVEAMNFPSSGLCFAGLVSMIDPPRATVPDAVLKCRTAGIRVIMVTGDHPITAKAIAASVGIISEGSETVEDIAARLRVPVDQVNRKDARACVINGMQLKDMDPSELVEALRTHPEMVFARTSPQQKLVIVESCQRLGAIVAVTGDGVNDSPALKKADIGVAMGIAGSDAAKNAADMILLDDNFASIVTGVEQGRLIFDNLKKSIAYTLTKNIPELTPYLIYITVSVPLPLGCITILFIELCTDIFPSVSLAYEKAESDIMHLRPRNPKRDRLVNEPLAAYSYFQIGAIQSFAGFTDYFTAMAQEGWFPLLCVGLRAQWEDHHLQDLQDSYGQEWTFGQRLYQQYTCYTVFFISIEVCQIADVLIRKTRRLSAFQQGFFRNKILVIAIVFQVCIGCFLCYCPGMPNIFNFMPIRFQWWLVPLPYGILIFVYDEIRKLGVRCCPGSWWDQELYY
T1 sequence (P51164 whole entry partner): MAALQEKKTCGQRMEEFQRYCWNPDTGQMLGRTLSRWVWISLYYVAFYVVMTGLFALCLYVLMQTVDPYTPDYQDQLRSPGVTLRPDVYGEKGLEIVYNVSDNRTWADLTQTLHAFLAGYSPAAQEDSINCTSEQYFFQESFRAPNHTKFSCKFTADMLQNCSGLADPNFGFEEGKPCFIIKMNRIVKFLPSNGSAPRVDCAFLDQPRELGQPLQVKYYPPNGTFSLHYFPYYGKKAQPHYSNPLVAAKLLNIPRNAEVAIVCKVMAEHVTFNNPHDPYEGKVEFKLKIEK

A word on the pIC50: it is the IC50 on a negative log10 scale, so that one unit is a factor of ten. Lower therefore signals a large IC50. In the case of `Cc1cccc(C)c1CNc1nccn2c(C)c(C)nc12` [Example 1, 2,3-dimethyl-8-(2,6-dimethylbenzylamino)imidazo [1,2-a]pyrazine], the pIC50 is 6.80.

On to `Cc1cccc(C)c1COc1nccn2c(C)c(C)nc12` [Example 2, 2,3-dimethyl-8-(2,6-dimethylbenzyloxy)imidazo[1,2-a]pyrazine], for which the pIC50 was 5.56.
